Experiment [1] has as its target T1, Thromboxane-A synthase (Homo sapiens, UniProt P24557).
T1 sequence (P24557 whole entry): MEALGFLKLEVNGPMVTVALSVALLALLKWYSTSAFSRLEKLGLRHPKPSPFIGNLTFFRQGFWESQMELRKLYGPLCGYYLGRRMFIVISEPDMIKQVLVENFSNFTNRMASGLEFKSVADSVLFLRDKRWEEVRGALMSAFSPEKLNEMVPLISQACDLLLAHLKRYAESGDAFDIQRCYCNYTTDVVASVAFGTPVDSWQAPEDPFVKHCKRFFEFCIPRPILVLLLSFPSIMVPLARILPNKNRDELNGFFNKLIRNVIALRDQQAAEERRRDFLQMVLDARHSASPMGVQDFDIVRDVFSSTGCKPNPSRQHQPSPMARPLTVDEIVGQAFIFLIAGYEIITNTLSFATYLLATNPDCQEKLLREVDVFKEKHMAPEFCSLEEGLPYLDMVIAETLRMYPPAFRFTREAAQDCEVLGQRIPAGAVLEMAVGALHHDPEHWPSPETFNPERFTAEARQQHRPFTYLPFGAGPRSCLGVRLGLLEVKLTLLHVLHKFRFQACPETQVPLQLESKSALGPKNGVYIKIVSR
The experiment in a line: In vitro inhibition against thromboxane synthase.

Experiment [2] has as its system Cavia porcellus. The experiment can be described thus: Ex vivo inhibition of […] induced guinea pig platelet aggregation after 1 hr post oral administration at a dose of 10 mg/kg; Aggregation ratio = EC50 for drug/EC50 for control. The experiment is classed as functional.
Experiment [3] in a line: In vitro thromboxane receptor antagonist against U-46619 induced aggregation of washed human platelets.

Where “and” joins values, the source holds several entries; their conditions need not be identical. Equal entries are not always repeated.

In turn, `O=C(O)CC/C=C\CC[C@H]1[C@@H](OCc2ccc(-c3ccccc3)cc2)CO[C@H]1c1cccnc1` displayed an IC50 in experiment [1] of 32 nM.

`O=C(O)CC/C=C\CC[C@H]1[C@H](OCc2ccc(-c3ccccc3)cc2)CO[C@H]1c1cccnc1` came in with an IC50 in experiment [1] of 65 nM.

In the case of `O=C(O)CC/C=C\CC[C@H]1[C@@H](OCc2ccc(-c3ccccc3)cc2)CO[C@@H]1c1cccnc1` (stereo in doubt; (-)), the midpoint of inhibition in experiment [1], the IC50, lay at 120 nM.

For the molecule `O=C(O)CC/C=C\CC[C@H]1[C@@H](OCc2ccc(-c3ccccc3)cc2)CO[C@@H]1c1cccnc1` (stereo in doubt; (+)), the Aggregation ratio in experiment [2] (10 mg/kg) is >100 and 65.6. Moreover, inhibition in experiment [1] was half-maximal at 4.3 nM (IC50).

With `O=C(O)CCCCO/N=C(/c1cccnc1)c1cccc(C(F)(F)F)c1` [RIDOGREL], in experiment [2], the Aggregation ratio is listed as 4.4.

In the case of `O=C(O)CC/C=C\CC[C@@H]1[C@@H](c2cccnc2)OC[C@H]1OCc1ccc(-c2ccccc2)cc1`, the IC50 in experiment [1] is 22 nM.

In the case of `O=C(O)CCC(CCCCNS(=O)(=O)c1ccc(Cl)cc1)CCCc1cccnc1` (stereo not given), the Aggregation ratio in experiment [2] is 24.5. In experiment [3], this molecule displayed an IC50 of 18 nM.

Molecule `O=C(O)CC/C=C\CC[C@H]1[C@@H](OCc2ccc(-c3ccccc3)cc2)CO[C@@H]1c1cccnc1` (stereo in doubt; 5) yielded an IC50 in experiment [1] of 17 nM. In other words, the double-digit nanomolar range.

For orientation: IC50 means the concentration needed to halve the response being measured.

For the origin of these results see ChEMBL document CHEMBL1151532, “Oxa-prostanoid analogs. Identification of an orally effective, dual thromboxane receptor antagonist /thromboxane synthase inhibitor” (Bioorg Med Chem Lett, 1994).
